We go through 14 compounds from article PMC10815578 (International Journal of Molecular Sciences, 2024).

Each structure is given as a SMILES string. Values joined by “and” are separate entries in the source; they are usually repeats but may differ in a detail not shown here. Equal values may be shown once. Read-outs that look alike come from different tables or passages of the source.

For one series, the target named is T1, OATP4C1 (Homo sapiens, UniProt Q6ZQN7).
T1 sequence (Q6ZQN7 1-724): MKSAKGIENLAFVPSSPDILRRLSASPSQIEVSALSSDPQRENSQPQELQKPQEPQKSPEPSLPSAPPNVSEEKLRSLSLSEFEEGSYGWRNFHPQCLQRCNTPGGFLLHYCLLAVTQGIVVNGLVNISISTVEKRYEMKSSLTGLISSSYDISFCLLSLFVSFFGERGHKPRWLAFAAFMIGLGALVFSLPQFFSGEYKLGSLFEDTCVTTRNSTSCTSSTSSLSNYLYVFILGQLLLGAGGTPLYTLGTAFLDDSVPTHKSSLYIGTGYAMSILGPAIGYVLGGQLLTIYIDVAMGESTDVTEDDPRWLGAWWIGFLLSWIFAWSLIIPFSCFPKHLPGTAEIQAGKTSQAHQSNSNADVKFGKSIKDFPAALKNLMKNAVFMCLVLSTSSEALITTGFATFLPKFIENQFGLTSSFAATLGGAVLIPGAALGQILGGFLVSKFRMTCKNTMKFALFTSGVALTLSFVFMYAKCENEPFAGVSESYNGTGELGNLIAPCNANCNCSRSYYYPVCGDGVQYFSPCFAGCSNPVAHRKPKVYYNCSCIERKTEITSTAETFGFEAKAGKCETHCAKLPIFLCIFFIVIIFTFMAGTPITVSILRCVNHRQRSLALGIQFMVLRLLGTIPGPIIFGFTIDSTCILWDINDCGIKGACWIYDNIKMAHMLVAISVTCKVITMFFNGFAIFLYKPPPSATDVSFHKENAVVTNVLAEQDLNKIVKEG
Description: Inhibition of OATP4C1-mediated T3 uptake in OATP4C1/MDCKII cells. The note with it: for inhibition at 10 min, 100 µM / inhibition at 10 min, 50 µM: human; for alteration of OATP4C1-mediated transport (in words): 100 µM (theaflavin 50 µM); for inhibition at 10 min, 50 µM: curcumin inhibition of OATP4C1-mediated transport, 50 µM curcumin.

The subject of the next series is OATP2B1. The note with it: Supplementary table, ref previous reports (superscript numbers), cited from earlier work; for IC50: read-out: OATP2B1 IC50.
The test system of a further series is OATP1B3. The following applies: read-out: OATP1B3 IC50; Supplementary table; ref previous reports (superscript numbers); cited from earlier work.
The subject of the next series is OATP1B1. The following applies: cited from earlier work; for OATP1B1 inhibition degree: ref 1 of the supplement.
[1] abbreviates: pH 7.4, probe T3 (1 µM), OATP4C1 inhibition degree, 100 µM, Supplementary table.
The mark [2] stands for this setting: Supplementary table, ref previous reports (superscript numbers).
Setting [3] is: read-out: OATP1B1 IC50, Supplementary table, ref previous reports (superscript numbers).
The mark [4] stands for this setting: pH 7.4, probe T3 (1 µM), inhibition of OATP4C1-mediated transport, 100 µM compound, 1 µM T3, 10 min, 37 °C, without AA.

Broadly, the inhibition is the share of the control response that was lost under treatment. Regarding `Oc1cc(O)c2cc(O)c(-c3ccc(O)c(O)c3)[o+]c2c1` [Cyanidin, Cyanidin chloride], the “OATP4C1 inhibition or elevation (class)” value at OATP4C1 (Supplementary table) is recorded as “Yes”. The same compound showed an inhibition at 10 min, 100 µM at OATP4C1 (setting [1]) of 24%.
On to `COc1ccc([C@@H]2CC(=O)c3c(O)cc(O[C@@H]4O[C@H](CO[C@@H]5O[C@@H](C)[C@H](O)[C@@H](O)[C@H]5O)[C@@H](O)[C@H](O)[C@H]4O)cc3O2)cc1O` [Hesperidin, hesperidin], for which the “OATP4C1 inhibition or elevation (class)” value at OATP4C1 (Supplementary table) is “No”.
For orientation: IC50 means the concentration that gives 50% inhibition. On to `O=c1c(O[C@@H]2O[C@H](CO)[C@H](O)[C@H](O)[C@H]2O)c(-c2ccc(O)c(O)c2)oc2cc(O)cc(O)c12` [Hyperoside], for which the “OATP4C1 inhibition or elevation (class)” value on OATP4C1 (Supplementary table) is recorded as “No”. Also, the IC50 in the series on OATP2B1 was 29.4 ± 1.5 µM.
Regarding `O=c1c(O)c(-c2cc(O)c(O)c(O)c2)oc2cc(O)cc(O)c12` [Myricetin, myricetin], the “OATP4C1 inhibition or elevation (class)” value at OATP4C1 (Supplementary table) was “No”.
With `C[C@@H]1O[C@@H](O[C@H]2[C@H](Oc3cc(O)c4c(c3)O[C@H](c3ccc(O)cc3)CC4=O)O[C@H](CO)[C@@H](O)[C@@H]2O)[C@H](O)[C@H](O)[C@H]1O` [Naringin, naringin], the “OATP4C1 inhibition or elevation (class)” value at OATP4C1 (Supplementary table) was “No”. The IC50 in the series with OATP1B3 is 197.5 ± 1.1 µM. Further, the OATP1B1 inhibition degree in the series on OATP1B1 (250 µM) was under 50%. Further, the “OATP1B1 inhibition or elevation (class)” value in the series with OATP1B1 (setting [2]) is “Yes”.
`C[C@@H]1O[C@@H](OC[C@H]2O[C@@H](Oc3c(-c4ccc(O)c(O)c4)oc4cc(O)cc(O)c4c3=O)[C@H](O)[C@@H](O)[C@@H]2O)[C@H](O)[C@H](O)[C@H]1O` [Rutin, rutin]: the “OATP4C1 inhibition or elevation (class)” value at OATP4C1 (Supplementary table) was “No”. Moreover, the IC50 was 111.5 ± 1.1 µM with OATP1B3 and 60.7 ± 1.2 µM in the series with OATP2B1. The OATP1B1 elevation degree in the series on OATP1B1 (50 µM, ref 2 of the supplement) is 81.1%. In the series on OATP1B1 (150 µM), the OATP1B1 inhibition degree was under 50%. The “OATP1B1 inhibition or elevation (class)” value with OATP1B1 (setting [2]) is listed as “Elevation”.
What is called Ki is a dissociation constant, usually derived from enzyme kinetics or from competition with a known ligand. As for `O=c1c(O)cc([C@H]2Oc3cc(O)cc(O)c3C[C@H]2O)cc2c([C@H]3Oc4cc(O)cc(O)c4C[C@H]3O)cc(O)c(O)c12` [Theaflavin, theaflavin], on OATP4C1 (1 µM T3, 10 min, without AA), the “alteration of OATP4C1-mediated transport (in words)” value is “did not inhibit”. In addition, the “OATP4C1 inhibition or elevation (class)” value on OATP4C1 (Supplementary table) was “No”. The Ki in the series with OATP2B1 (read-out: OATP2B1 Ki (asterisk)) was 8.2 ± 1.7 µM.
In the case of `O=C(O)/C=C/c1ccc(O)c(O)c1` [caffeic acid, Caffeic acid], the “alteration of OATP4C1-mediated transport (in words)” value at OATP4C1 (1 µM T3, 10 min, without AA) is reported as “did not inhibit”. At OATP4C1 (Supplementary table), the “OATP4C1 inhibition or elevation (class)” value is given as “No”.
On to `COc1cc(/C=C/C(=O)CC(=O)/C=C/c2ccc(O)c(OC)c2)ccc1O` [curcumin], for which the inhibition at 10 min, 50 µM against OATP4C1 (pH 7.4, probe T3 (1 µM), absence of AA, 1 µM T3, 10 min) is 33%; on OATP4C1 (pH 7.4, probe T3 (1 µM), presence of 10, 100 and 1000 µM AA, 1 µM T3, 10 min), 63 to 67%. Besides, the IC50 with OATP1B1 (read-out: IC50 OATP1B1 transport, no antioxidant used) was 3.8 µM; in the series on OATP1B1 (setting [3]), 3.81 µM.
`O=c1c(-c2ccc(O)cc2)coc2cc(O)ccc12` [daidzein]: at OATP4C1, the “OATP4C1 inhibition or elevation (class)” value is on record as “Yes” and the “inhibitory effect on OATP4C1-mediated transport in the presence of AA compared with its absence” value (“inhibitory effect … compared with its absence” below) is listed as “weakened”. Moreover, the inhibition at 10 min, 100 µM at OATP4C1 (setting [1]) was determined as 40%. Besides, the inhibition at 10 min, 100 µM against OATP4C1 (setting [4]) was found to be 40%. The IC50 in the series with OATP2B1 was 22.3 µM and 20.7 µM.
Consider `O=c1c(O)c(-c2ccc(O)c(O)c2)oc2cc(O)ccc12` [fisetin], for which the “inhibitory effect … compared with its absence” value on OATP4C1 (100 µM compound, 10 µM AA) is on record as “weakened”. Further, the “OATP4C1 inhibition or elevation (class)” value on OATP4C1 (Supplementary table) is “No”. The inhibition at 10 min, 100 µM on OATP4C1 (setting [4]) came out at 24%.
Regarding `O=C(O)c1cc(O)c(O)c(O)c1` [gallic acid, Gallic acid], the IC50 in the series with OATP1B3 is 1.6 ± 0.6 µM.
On to `O=c1c(-c2ccc(O)cc2)coc2cc(O)cc(O)c12` [genistein], for which, on OATP4C1 (100 µM compound, 10 µM AA), the “inhibitory effect … compared with its absence” value is on record as “weakened”. Further, the “OATP4C1 inhibition or elevation (class)” value on OATP4C1 (Supplementary table) is on record as “Yes”. The compound also yielded an inhibition at 10 min, 100 µM against OATP4C1 (pH 7.4) of 42%. Moreover, the IC50 with OATP1B1 (setting [3]) is 14.9 ± 3.76 µM.
Consider `COc1cc(-c2oc3cc(O)cc(O)c3c(=O)c2O)ccc1O` [isorhamnetin], for which the “inhibitory effect … compared with its absence” value at OATP4C1 (100 µM compound, 10 µM AA) was “weakened”. For the same compound, the “OATP4C1 inhibition or elevation (class)” value on OATP4C1 (Supplementary table) was “Yes”. This compound had an inhibition at 10 min, 100 µM against OATP4C1 (pH 7.4) of 18%. For the same compound, the IC50 with OATP1B3 was 3.1 µM; in the series on OATP2B1, 0.82 µM.
